# Reference: patent EP4122459A1, “COMPOSITION FOR PREVENTING AND TREATING NAIL ALTERATIONS AND DISEASES” (Giuliani S.p.A., priority 2021, dated 2023)
# System: HACAT cells
# Assay: In vitro cell proliferation test (MTT assay) on HACAT cells
# Assay type: cell-based, human
# Conditions: 48h, highest concentrations: Cocoa 16µg/mL, Zinc 4µg/mL
# Text: The MTT assay (3-(4,5-dimethylthiazol-2-yl)-2,5-diphenyltetrazolium bromide) is a colorimetric assay used to evaluate in vitro cell proliferation, as it allows to measure proliferation and cell viability through the evaluation of mitochondrial activity (Mosmann et al., 1983). This method is very useful to measure cell growth following treatment with mitogenic agents, antigenic stimuli, growth factors and for cytotoxicity studies. […] Formazan forms crystals, insoluble in the intracellular environment, to which the membranes are substantially impermeable: the molecule can therefore enter the cell, but the product cannot exit if it has been correctly metabolized, that is if the electron transport chains are still metabolically active. The formazan crystals are subsequently solubilized in dimethyl sulfoxide (DMSO), thus causing the solution to color change from yellow to dark blue-violet. The assay was carried out following the method by Mosmann (1983), with some minor modifications. […] The absorbance of the colored solution was measured using a spectrophotometric reader for microplates (BioTek Instruments Inc., BadFriedrichshall, Germany) at a wavelength of 570 nm (reference wavelength at 630 nm). The data were expressed as a percentage of cell viability compared to control cells (ctr), according to the following formula: % cell viability/ctr = (Abssample/Absctr)*100. […]
substance,measurement,value
Zinc,cytotoxic activity on HACAT cells,significant (p<0.05) cytotoxic activity
